Measurements from PubChem BioAssay (NCI).
“And” between values parts separate entries of the source, which are not always exact repeats. Equal values may be shown once.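 Where inhibition never reached the appropriate level, the endpoint shown equals the highest concentration tested. Otherwise, values were interpolated linearly from a five-concentration, 48-hour dose response in 96-well plates. GI50 = concentration required for 50% inhibition of growth. At the TGI there is no net growth.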

Columns and labels:
Assay in all cases: NCI tumour cell line growth inhibition, 48 h
BT-549 breast = tested on: BT-549 breast
XF 498 CNS = tested on: XF 498 CNS
NCI/ADR-RES ovarian = tested on: NCI/ADR-RES ovarian
SF-268 CNS = tested on: SF-268 CNS
UO-31 renal = tested on: UO-31 renal
COLO 205 colon = tested on: COLO 205 colon
HCT-116 colon = tested on: HCT-116 colon
RPMI-8226 leukemia = tested on: RPMI-8226 leukemia
KM20L2 colon = tested on: KM20L2 colon
P388/ADR leukemia = tested on: P388/ADR leukemia
NCI-H23 lung = tested on: NCI-H23 lung
EKVX NSCLC = tested on: EKVX NSCLC
SK-OV-3 ovarian = tested on: SK-OV-3 ovarian
OVCAR-3 ovarian = tested on: OVCAR-3 ovarian
DMS 114 small cell lung = tested on: DMS 114 small cell lung
SK-MEL-5 melanoma = tested on: SK-MEL-5 melanoma
SN12K1 renal = tested on: SN12K1 renal
MDA-MB-435 = tested on: MDA-MB-435
TK-10 renal = tested on: TK-10 renal
K-562 leukemia = tested on: K-562 leukemia
T-47D breast = tested on: T-47D breast
A549 NSCLC = tested on: A549 NSCLC
DMS 273 small cell lung = tested on: DMS 273 small cell lung
OVCAR-4 ovarian = tested on: OVCAR-4 ovarian
MDA-N = tested on: MDA-N
NCI-H522 lung = tested on: NCI-H522 lung
SNB-78 CNS = tested on: SNB-78 CNS
HL-60(TB) leukemia = tested on: HL-60(TB) leukemia
NCI-H226 lung = tested on: NCI-H226 lung
IGROV1 ovarian = tested on: IGROV1 ovarian
UACC-62 melanoma = tested on: UACC-62 melanoma
NCI-H460 lung = tested on: NCI-H460 lung
HS 578T breast = tested on: HS 578T breast
DU-145 prostate = tested on: DU-145 prostate
MALME-3M melanoma = tested on: MALME-3M melanoma
LXFL 529 NSCLC = tested on: LXFL 529 NSCLC
OVCAR-5 ovarian = tested on: OVCAR-5 ovarian
786-0 renal = tested on: 786-0 renal
SF-539 CNS = tested on: SF-539 CNS
KM12 colon = tested on: KM12 colon
HOP-18 NSCLC = tested on: HOP-18 NSCLC
MDA-MB-231 breast = tested on: MDA-MB-231 breast
UACC-257 melanoma = tested on: UACC-257 melanoma
OVCAR-8 ovarian = tested on: OVCAR-8 ovarian
M19-MEL melanoma = tested on: M19-MEL melanoma
HOP-62 NSCLC = tested on: HOP-62 NSCLC
LOX IMVI melanoma = tested on: LOX IMVI melanoma
CCRF-CEM leukemia = tested on: CCRF-CEM leukemia
M14 melanoma = tested on: M14 melanoma
P388 leukemia = tested on: P388 leukemia
MOLT-4 leukemia = tested on: MOLT-4 leukemia

`O=NN(CCCl)C(=O)NCCCl` was tested, and the GI50 (BT-549 breast) was 47.3 µM and 251 µM, the TGI (BT-549 breast) was 92.8 µM and 148 µM and > 300 µM and the TGI (XF 498 CNS) was 135 µM. For the same compound, the GI50 (NCI/ADR-RES ovarian) was 61.7 µM and 266 µM, the TGI (NCI/ADR-RES ovarian) was 156 µM and 234 µM and > 422 µM and the GI50 (SF-268 CNS) was 31 µM. For the same compound, the TGI (SF-268 CNS) was 98.4 µM and 138 µM and > 259 µM, the GI50 (UO-31 renal) was 75.9 µM and the TGI (UO-31 renal) was 148 µM and 186 µM and 179 µM. The GI50 (COLO 205 colon) was 47.2 µM and 202 µM, the TGI (COLO 205 colon) was 90.2 µM and 144 µM and > 286 µM and the GI50 (HCT-116 colon) was 62.5 µM and 112 µM. The TGI (HCT-116 colon) was 155 µM and 156 µM and 256 µM, the GI50 (RPMI-8226 leukemia) was 34.3 µM and 118 µM and the TGI (RPMI-8226 leukemia) was 120 µM and 198 µM and 260 µM. The TGI (KM20L2 colon) was 205 µM, the TGI (P388/ADR leukemia) was 48 µM and the GI50 (NCI-H23 lung) was greater than 272 µM. For the same compound, the TGI (NCI-H23 lung) was 228 µM and 182 µM and > 367 µM, the GI50 (EKVX NSCLC) was 152 µM and > 268 µM and the TGI (EKVX NSCLC) was 250 µM and 225 µM and > 326 µM. The GI50 (SK-OV-3 ovarian) was 226 µM and > 500 µM, the TGI (SK-OV-3 ovarian) was 250 µM and 211 µM and > 500 µM and the GI50 (OVCAR-3 ovarian) was 63.9 µM and > 295 µM. The TGI (OVCAR-3 ovarian) was 152 µM and 159 µM and > 372 µM, the TGI (DMS 114 small cell lung) was 142 µM and the GI50 (SK-MEL-5 melanoma) was 95.6 µM and 362 µM. For the same compound, the TGI (SK-MEL-5 melanoma) was 250 µM and 161 µM and > 500 µM, the TGI (SN12K1 renal) was 127 µM and the GI50 (MDA-MB-435) was 50 µM and 331 µM. The TGI (MDA-MB-435) was 127 µM and 147 µM and > 500 µM, the GI50 (TK-10 renal) was 59.6 µM and > 279 µM and the TGI (TK-10 renal) was 144 µM and 173 µM and > 373 µM. For the same compound, the TGI (K-562 leukemia) was 44.6 µM and 206 µM and 280 µM, the GI50 (T-47D breast) was 74.7 µM and 234 µM and the TGI (T-47D breast) was 250 µM and 220 µM and > 331 µM. For the same compound, the GI50 (A549 NSCLC) was 210 µM, the TGI (A549 NSCLC) was 250 µM and 313 µM and > 379 µM and the TGI (DMS 273 small cell lung) was 157 µM. The GI50 (OVCAR-4 ovarian) was 42.7 µM and > 352 µM, the TGI (OVCAR-4 ovarian) was 83.3 µM and 161 µM and > 398 µM and the GI50 (MDA-N) was 210 µM. The TGI (MDA-N) was 158 µM and > 301 µM, the GI50 (NCI-H522 lung) was 47.7 µM and 102 µM and the TGI (NCI-H522 lung) was 107 µM and 113 µM and 179 µM. For the same compound, the TGI (SNB-78 CNS) was 198 µM, the GI50 (HL-60(TB) leukemia) was 30.5 µM and 11.3 µM and the TGI (HL-60(TB) leukemia) was 89.3 µM and 67.3 µM and 28.9 µM. The GI50 (NCI-H226 lung) was 147 µM and 207 µM, the TGI (NCI-H226 lung) was 250 µM and > 383 µM and the GI50 (IGROV1 ovarian) was 55.9 µM and 196 µM. The TGI (IGROV1 ovarian) was 176 µM and 150 µM and > 374 µM, the GI50 (UACC-62 melanoma) was 44.9 µM and > 151 µM and the TGI (UACC-62 melanoma) was 169 µM and 91.9 µM and > 260 µM. For the same compound, the GI50 (NCI-H460 lung) was 62.4 µM, the TGI (NCI-H460 lung) was 250 µM and 168 µM and the GI50 (HS 578T breast) was 122 µM and 252 µM. For the same compound, the TGI (HS 578T breast) was 205 µM and 231 µM and > 317 µM, the GI50 (DU-145 prostate) was 95 µM and 296 µM and the TGI (DU-145 prostate) was 250 µM and 364 µM and > 377 µM. For the same compound, the GI50 (MALME-3M melanoma) was 55.9 µM and 216 µM, the TGI (MALME-3M melanoma) was 108 µM and 161 µM and > 294 µM and the TGI (LXFL 529 NSCLC) was 141 µM. For the same compound, the GI50 (OVCAR-5 ovarian) was 52.3 µM and > 500 µM, the TGI (OVCAR-5 ovarian) was 104 µM and 184 µM and > 500 µM and the GI50 (786-0 renal) was 60 µM and 98.6 µM. For the same compound, the TGI (786-0 renal) was 141 µM and 113 µM and > 263 µM, the GI50 (SF-539 CNS) was 31 µM and 84.1 µM and the TGI (SF-539 CNS) was 92.6 µM and 116 µM and 190 µM. The GI50 (KM12 colon) was greater than 500 µM, the TGI (KM12 colon) was 250 µM and 194 µM and > 500 µM and the TGI (HOP-18 NSCLC) was 160 µM. The GI50 (MDA-MB-231 breast) was 61.8 µM and 224 µM, the TGI (MDA-MB-231 breast) was 164 µM and 160 µM and > 295 µM and the GI50 (UACC-257 melanoma) was greater than 258 µM. The TGI (UACC-257 melanoma) was 238 µM and 159 µM and > 369 µM, the GI50 (OVCAR-8 ovarian) was 51.3 µM and > 320 µM and the TGI (OVCAR-8 ovarian) was 164 µM and 197 µM and > 437 µM. For the same compound, the TGI (M19-MEL melanoma) was 160 µM, the GI50 (HOP-62 NSCLC) was 64.3 µM and 281 µM and the TGI (HOP-62 NSCLC) was 135 µM and 209 µM and > 389 µM. For the same compound, the GI50 (LOX IMVI melanoma) was 29.5 µM and 170 µM, the TGI (LOX IMVI melanoma) was 67.4 µM and 124 µM and 362 µM and the GI50 (CCRF-CEM leukemia) was 46 µM and 33.6 µM. For the same compound, the TGI (CCRF-CEM leukemia) was 142 µM and 97.8 µM and 65.6 µM, the GI50 (M14 melanoma) was 215 µM and the TGI (M14 melanoma) was 234 µM and 158 µM and > 308 µM. The TGI (P388 leukemia) was 40.9 µM, the GI50 (MOLT-4 leukemia) was 39.3 µM and 110 µM and the TGI (MOLT-4 leukemia) was 151 µM and 161 µM and 320 µM.
